Assays:
Type in all cases: in vivo
Settings in all cases: 312 h, evaluated after 13 days, 100=total damage to plant, 0=no damage to plant
[1] = test system: Ipomoea hederacea (IPOHE); assay: Pre-emergence biological efficacy
Procedure: (§1) Seeds of weeds and/or crops were sown in standard soil in pots (Amaranthus palmeri (AMAPA), Lolium perenne (LOLPE), Euphorbia heterophylla (EPHHL), Ipomoea hederacea (IPOHE), Setaria faberi (SETFA), Echinochloa crus-galli (ECHCG)). After cultivation for one day under controlled conditions in a glasshouse (at 24/19° C., day/night; 16 hours light), the plants were sprayed with an aqueous spray solution derived from the formulation of the technical active ingredient in a small amount of acetone and a special solvent and emulsifier mixture referred to as IF50 (11.12% Emulsogen EL360™+44.44% N-methylpyrrolidone+44.44% Dowanol DPM glycol ether), to create a 50 g/l solution which was then diluted using 0.2% Genapol XO80 as diluent to give the desired final dose of test compound.
(§2) The test plants were then grown under controlled conditions in the glasshouse (at 24/18° C., day/night; 15 hours light; 50% humidity) and watered twice daily. After 13 days the test was evaluated (100=total damage to plant; 0=no damage to plant).

[2] = test system: Echinochloa crus-galli (ECHCG); assay: Pre-emergence biological efficacy
Procedure: as §1, §2

[3] = test system: Amaranthus palmeri (AMAPA); assay: Pre-emergence biological efficacy
Procedure: as §1, §2

[4] = test system: Euphorbia heterophylla (EPHHL); assay: Pre-emergence biological efficacy
Procedure: as §1, §2

Setaria faberi (SETFA) [5] = assay: Pre-emergence biological efficacy
Procedure: as §1, §2

Lolium perenne (LOLPE) [6] = assay: Pre-emergence biological efficacy
Procedure: as §1, §2

[7] = test system: Ipomoea hederacea (IPOHE); assay: Post-emergence biological efficacy
Procedure: as §1, with “Chenopodium album (CHEAL),” for “Lolium perenne (LOLPE),”, “(IPOHE), Eleusine indica (ELEIN), Lolium perenne (LOLPE), Digitaria sanguinalis (DIGSA),” for “(IPOHE),”, “14 days” for “one day”, “compound. The test plants were then grown under controlled conditions in the glasshouse (at 24/18° C., day/night; 15 hours light; 50% humidity) and watered twice daily. After 13 days the test was evaluated (100=total damage to plant; 0=no damage to plant).” for “compound.”

[8] = test system: Digitaria sanguinalis (DIGSA); assay: Post-emergence biological efficacy
Procedure: as §1, with “Chenopodium album (CHEAL),” for “Lolium perenne (LOLPE),”, “(IPOHE), Eleusine indica (ELEIN), Lolium perenne (LOLPE), Digitaria sanguinalis (DIGSA),” for “(IPOHE),”, “14 days” for “one day”, “compound. The test plants were then grown under controlled conditions in the glasshouse (at 24/18° C., day/night; 15 hours light; 50% humidity) and watered twice daily. After 13 days the test was evaluated (100=total damage to plant; 0=no damage to plant).” for “compound.”

[9] = test system: Echinochloa crus-galli (ECHCG); assay: Post-emergence biological efficacy
Procedure: as §1, with “Chenopodium album (CHEAL),” for “Lolium perenne (LOLPE),”, “(IPOHE), Eleusine indica (ELEIN), Lolium perenne (LOLPE), Digitaria sanguinalis (DIGSA),” for “(IPOHE),”, “14 days” for “one day”, “compound. The test plants were then grown under controlled conditions in the glasshouse (at 24/18° C., day/night; 15 hours light; 50% humidity) and watered twice daily. After 13 days the test was evaluated (100=total damage to plant; 0=no damage to plant).” for “compound.”

Eleusine indica (ELEIN) = assay: Post-emergence biological efficacy
Procedure: as §1, with “Chenopodium album (CHEAL),” for “Lolium perenne (LOLPE),”, “(IPOHE), Eleusine indica (ELEIN), Lolium perenne (LOLPE), Digitaria sanguinalis (DIGSA),” for “(IPOHE),”, “14 days” for “one day”, “compound. The test plants were then grown under controlled conditions in the glasshouse (at 24/18° C., day/night; 15 hours light; 50% humidity) and watered twice daily. After 13 days the test was evaluated (100=total damage to plant; 0=no damage to plant).” for “compound.”

[10] = test system: Amaranthus palmeri (AMAPA); assay: Post-emergence biological efficacy
Procedure: as §1, with “Chenopodium album (CHEAL),” for “Lolium perenne (LOLPE),”, “(IPOHE), Eleusine indica (ELEIN), Lolium perenne (LOLPE), Digitaria sanguinalis (DIGSA),” for “(IPOHE),”, “14 days” for “one day”, “compound. The test plants were then grown under controlled conditions in the glasshouse (at 24/18° C., day/night; 15 hours light; 50% humidity) and watered twice daily. After 13 days the test was evaluated (100=total damage to plant; 0=no damage to plant).” for “compound.”

[11] = test system: Euphorbia heterophylla (EPHHL); assay: Post-emergence biological efficacy
Procedure: as §1, with “Chenopodium album (CHEAL),” for “Lolium perenne (LOLPE),”, “(IPOHE), Eleusine indica (ELEIN), Lolium perenne (LOLPE), Digitaria sanguinalis (DIGSA),” for “(IPOHE),”, “14 days” for “one day”, “compound. The test plants were then grown under controlled conditions in the glasshouse (at 24/18° C., day/night; 15 hours light; 50% humidity) and watered twice daily. After 13 days the test was evaluated (100=total damage to plant; 0=no damage to plant).” for “compound.”

[12] = test system: Chenopodium album (CHEAL); assay: Post-emergence biological efficacy
Procedure: as §1, with “Chenopodium album (CHEAL),” for “Lolium perenne (LOLPE),”, “(IPOHE), Eleusine indica (ELEIN), Lolium perenne (LOLPE), Digitaria sanguinalis (DIGSA),” for “(IPOHE),”, “14 days” for “one day”, “compound. The test plants were then grown under controlled conditions in the glasshouse (at 24/18° C., day/night; 15 hours light; 50% humidity) and watered twice daily. After 13 days the test was evaluated (100=total damage to plant; 0=no damage to plant).” for “compound.”

Setaria faberi (SETFA) [13] = assay: Post-emergence biological efficacy
Procedure: as §1, with “Chenopodium album (CHEAL),” for “Lolium perenne (LOLPE),”, “(IPOHE), Eleusine indica (ELEIN), Lolium perenne (LOLPE), Digitaria sanguinalis (DIGSA),” for “(IPOHE),”, “14 days” for “one day”, “compound. The test plants were then grown under controlled conditions in the glasshouse (at 24/18° C., day/night; 15 hours light; 50% humidity) and watered twice daily. After 13 days the test was evaluated (100=total damage to plant; 0=no damage to plant).” for “compound.”

Lolium perenne (LOLPE) [14] = assay: Post-emergence biological efficacy
Procedure: as §1, with “Chenopodium album (CHEAL),” for “Lolium perenne (LOLPE),”, “(IPOHE), Eleusine indica (ELEIN), Lolium perenne (LOLPE), Digitaria sanguinalis (DIGSA),” for “(IPOHE),”, “14 days” for “one day”, “compound. The test plants were then grown under controlled conditions in the glasshouse (at 24/18° C., day/night; 15 hours light; 50% humidity) and watered twice daily. After 13 days the test was evaluated (100=total damage to plant; 0=no damage to plant).” for “compound.”

Row | Compound | pest or weed control at 250 g/ha [1] [%] | pest or weed control at 250 g/ha [2] [%] | pest or weed control at 250 g/ha [3] [%] | pest or weed control at 250 g/ha [4] [%] | pest or weed control at 250 g/ha (Setaria faberi (SETFA) [5]) [%] | pest or weed control at 250 g/ha (Lolium perenne (LOLPE) [6]) [%] | pest or weed control at 250 g/ha [7] [%] | pest or weed control at 250 g/ha [8] [%] | pest or weed control at 250 g/ha [9] [%] | pest or weed control at 250 g/ha (Eleusine indica (ELEIN)) [%] | pest or weed control at 250 g/ha [10] [%] | pest or weed control at 250 g/ha [11] [%] | pest or weed control at 250 g/ha [12] [%] | pest or weed control at 250 g/ha (Setaria faberi (SETFA) [13]) [%] | pest or weed control at 250 g/ha (Lolium perenne (LOLPE) [14]) [%]
1 | CCOC(=O)C(Cl)COC(=O)c1cc(-n2c(=O)n(C)c(=S)n(C)c2=O)c(F)cc1Cl (stereo not drawn) [Compound 1-675, (2-Chloro-3-ethoxy-3-oxo-propyl) 2-chloro-5-(3,5-dimethyl-2,6-dioxo-4-thioxo-1,3,5-triazinan-1-yl)-4-fluoro-benzoate] | 40 | 100 | 100 | 80 | 90 | 90 | 100 | 90 | 80 | 90 | 100 | 90 | 100 | 90 | 80
2 | CCOC(=O)CC1(NC(=O)c2cc(-n3c(=O)n(C)c(=S)n(C)c3=O)c(F)cc2Cl)CC1 [Compound 1-744, Ethyl 2-[1-[[2-chloro-5-(3,5-dimethyl-2,6-dioxo-4-thioxo-1,3,5-triazinan-1-yl)-4-fluoro-benzoyl]amino]cyclopropyl]acetate] | 10 | 80 | 40 | 70 | 50 | 60 | 30 | 20 | 30 | 50 | 30 | 70 | 60 | 10 | 60

Source: patent US20250127170A1, “TRIAZINE HERBICIDAL COMPOUNDS” (SYNGENTA CROP PROTECTION AG, priority 2021, published 2025)
